Laboratory results from patent US20240425464A1, “Substituted Monohydrazides as Potent Antifungal Agents” (University of Kentucky Research Foundation, priority 2023, published 2024).
Values after ≈ are worked out from the molar mass of the structure shown. Values joined by “and” are separate entries in the source; they are usually repeats but may differ in a detail not shown here. Identical values can stand only once. Like-named read-outs stand apart in the source and are kept apart here.

How the values were obtained:
Format in all cases: cell-based, Candida albicans
[1] = system: C. albicans ATCC 10231 (strain A); test: MIC determination by in vitro antifungal assay (CLSI broth dilution); conditions: strain A = C. albicans ATCC 10231, no visible growth, 48 h at 35° C.
Description: (§1) 10 mg/mL stock solutions of compounds 1a-9j were prepared in dimethyl sulfoxide (DMSO) and were stored at −20° C. in the dark. The antifungal agent amphotericin B (AmB) was purchased from VWR (Radnor PA, USA). AmB was dissolved in DMSO at a final concentration of 5 mg/mL and was stored at −20° C., protected from light. Candida albicans American Type Culture Collection (ATCC) 10231 (strain A), C. albicans ATCC 64124 (B), and C. albicans ATCC MYA-2876 (C) were obtained from Utah State University. C. albicans ATCC 90819 (D), C. albicans ATCC MYA-2310 (E), C. albicans ATCC MYA-1237 (F), C. albicans ATCC MYA-1003 (G), Candida glabrata ATCC 2001 (H), Candida krusei ATCC 6258 (I), Candida parapsilosis ATCC 22019 (J), Cryptococcus neoformans ATCC MYA-895 (M), Aspergillus terreus ATCC MYA-3633 (N), and Aspergillus flavus ATCC MYA-3631 (0) were obtained from the American Type Culture Collection (ATCC; Manassas, VA, USA). Aspergillus nidulans ATCC 38163 (P) was obtained from University of Kentucky. Clinically derived Aspergillus fumigatus NRRL 163 (Q), A. fumigatus NRRL 5109 (R), and A. fumigatus NRRL 6113 (S) were obtained from Northern Regional Research Laboratory (NRRL). Candida auris 384 (K), C. auris 390 (L), and fungal strains 381-400 (including 10 C. auris (AR Bank #381-390), 3 Candida duobushaemulonii (AR Bank #391, AR Bank #392, and AR Bank #394), 2 Candida haemulonii (AR Bank #393 and AR Bank #395), 1 Kodameae ohmeri (AR Bank #396), 1 C. krusei (AR Bank #397), 1 Candida lusitaniae (AR Bank #398), and 2 Saccharomyces cerevisiae strains (AR Bank #399 and AR Bank #400)) were part of a larger fungal library from the AR Bank maintained by the Centers for Disease Control and Prevention (CDC; Atlanta, GA, USA). Filamentous fungi and yeasts were cultivated at 35° C. in RPMI 1640 medium (with L-glutamine, without sodium bicarbonate, Sigma-Aldrich, St. Louis, MO) buffered to a pH of 7.0 with 0.165 M morpholinepropanesulfonic acid (MOPS) buffer (Sigma-Aldrich). For cytotoxicity assays, HepG2 and the mouse macrophage cell line J774A.1 were obtained from University of Kentucky. The human embryonic kidney cell line, HEK-293, was bought from the ATCC. Mammalian cells were grown in Dulbecco's Modified Eagle's Medium (DMEM) (from VWR) with 10% fetal bovine serum (FBS) (from VWR) and 1% Pen/Strep (from ATCC). Cell lines were cultured at 37° C. with 5% CO2 and passaged by trypsinization with 0.05% trypsin: 0.53 mM EDTA (from Sigma-Aldrich).
(§2) The MIC values of compounds 1a-9j against yeast cells (strains A-P and 381-400) were determined in 96-well plates as described in the CLSI documents M27-A3 and M38-A2 with minor modifications.^2 A single colony of freshly prepared yeast cells was used to inoculate 5 mL of yeast extract peptone dextrose (YPD) broth prior to incubation overnight with shaking at 200 rpm at 35° C. From the actively growing yeast culture, 100 µL were then transferred to 900 μL of RPMI 1640 medium and re-adjusted to achieve OD600 of 0.12 (˜1×10^6 CFU/mL). The cell suspension was further diluted to achieve 1:100 in RPMI 1640 medium. 100 μL of cells were added to the wells of a 96-well microtiter plates that contained 100 µL of the compound solution to obtain concentrations of 0.06-31.3 μg/mL of compounds 1a-9j or AmB prior to incubation for 48 h at 35° C. […]

[2] = system: C. albicans ATCC 64124 (B); test: MIC determination by in vitro antifungal assay
Description: as §1, §2

[3] = system: C. albicans ATCC 90819 (D); test: MIC determination by in vitro antifungal assay
Description: as §1, §2

[4] = system: C. albicans ATCC MYA-1003 (G); test: MIC determination by in vitro antifungal assay; conditions: strain G = C. albicans ATCC MYA-1063(R) (footnote), MYA-1003 in text
Description: as §1, §2

[5] = system: C. albicans ATCC MYA-1237 (F); test: MIC determination by in vitro antifungal assay; conditions: strain F = C. albicans ATCC MYA-1237(R)
Description: as §1, §2

[6] = system: C. albicans ATCC MYA-2310 (E); test: MIC determination by in vitro antifungal assay; conditions: strain E = C. albicans ATCC MYA-2310
Description: as §1, §2

[7] = system: C. albicans ATCC MYA-2876 (C); test: MIC determination by in vitro antifungal assay; conditions: strain C = C. albicans ATCC MYA-2876(S)
Description: as §1, §2

[8] = strain B = C. albicans ATCC 64124
[9] = strain D = C. albicans ATCC 90819(R)
[10] = Candida albicans, ATCC10231, 48 h, read-out: MIC
[11] = Candida albicans, ATCC64124, strain B = C. albicans ATCC 64124, read-out: MIC
[12] = Candida albicans, ATCC90819, strain D = C. albicans ATCC 90819(R), read-out: MIC
[13] = Candida albicans, read-out: MIC

SMILES	MIC [1] [μg/mL^−1]	MIC [2, 8] [μg/mL^−1]	MIC [3, 9] [μg/mL^−1]	MIC [4]	MIC [5] [μg/mL^−1]	MIC [6] [μg/mL^−1]	MIC [7] [μg/mL^−1]	MIC [1, 10] [µg/mL]	MIC [2, 11] [µg/mL]	MIC [3, 12] [µg/mL]	MIC [4, 13] [µg/mL]	MIC [5, 13] [µg/mL]	MIC [6, 13] [µg/mL]	MIC [7, 13] [µg/mL]
C[C@@H]1[C@H](O)[C@@H](C)/C=C/C=C/C=C/C=C/C=C/C=C/C=C/[C@H](O[C@@H]2O[C@H](C)[C@@H](O)[C@H](N)[C@@H]2O)C[C@@H]2O[C@](O)(C[C@@H](O)C[C@@H](O)[C@H](O)CC[C@@H](O)C[C@@H](O)CC(=O)O[C@H]1C)C[C@H](O)[C@H]2C(=O)O [AmB, amphotericin B, reference compound]	1.95	1.95	0.98	0.98 μg/mL^−1 and 1.95 μg/mL^−1	1.95	0.98	1.95	–	–	–	–	–	–	–
O=C(NNc1cccc(F)c1)c1ccc(F)cc1F [Compound 1a]	0.24	1.95	7.8	1.95 μg/mL^−1	0.98	3.9	3.9	–	–	–	–	–	–	–
O=C(NNc1cccc(Cl)c1)c1ccc(F)cc1F [Compound 1b]	–	–	–	–	–	–	–	1.95 (≈ 6.9 µM)	7.8 (≈ 27.6 µM)	15.6 (≈ 55.2 µM)	3.9 (≈ 13.8 µM)	3.9 (≈ 13.8 µM)	7.8 (≈ 27.6 µM)	7.8 (≈ 27.6 µM)
COc1cccc(NNC(=O)c2ccc(F)cc2F)c1 [Compound 1c]	–	–	–	–	–	–	–	0.98 (≈ 3.52 µM)	1.95 (≈ 7.01 µM)	3.9 (≈ 14 µM)	1.95 (≈ 7.01 µM)	3.9 (≈ 14 µM)	3.9 (≈ 14 µM)	3.9 (≈ 14 µM)
O=C(NNc1ccc(F)cc1)c1ccc(F)cc1F [Compound 1d]	–	–	–	–	–	–	–	0.49 (≈ 1.84 µM)	7.8 (≈ 29.3 µM)	1.95 (≈ 7.32 µM)	1.95 (≈ 7.32 µM)	1.95 (≈ 7.32 µM)	3.9 (≈ 14.6 µM)	7.8 (≈ 29.3 µM)
O=C(NNc1ccc(Cl)cc1)c1ccc(F)cc1F [Compound 1e]	1.95	15.6	3.9	7.8 μg/mL^−1	1.95	7.8	15.6	–	–	–	–	–	–	–
COc1ccc(NNC(=O)c2ccc(F)cc2F)cc1 [Compound 1f]	–	–	–	–	–	–	–	0.98 (≈ 3.52 µM)	1.95 (≈ 7.01 µM)	1.95 (≈ 7.01 µM)	1.95 (≈ 7.01 µM)	1.95 (≈ 7.01 µM)	1.95 (≈ 7.01 µM)	1.95 (≈ 7.01 µM)
O=C(NNc1ccc(F)cc1F)c1ccc(F)cc1F [Compound 1g]	–	–	–	–	–	–	–	1.95 (≈ 6.86 µM)	1.95 (≈ 6.86 µM)	3.9 (≈ 13.7 µM)	0.98 (≈ 3.45 µM)	1.95 (≈ 6.86 µM)	> 31.3	3.9 (≈ 13.7 µM)
O=C(NNc1cc(F)ccc1F)c1ccc(F)cc1F [Compound 1h]	–	–	–	–	–	–	–	3.9 (≈ 13.7 µM)	15.6 (≈ 54.9 µM)	31.3 (≈ 110 µM)	31.3 (≈ 110 µM)	31.3 (≈ 110 µM)	31.3 (≈ 110 µM)	31.3 (≈ 110 µM)
O=C(NNc1cc(F)cc(F)c1)c1ccc(F)cc1F [Compound 1i]	–	–	–	–	–	–	–	3.9 (≈ 13.7 µM)	15.6 (≈ 54.9 µM)	15.6 (≈ 54.9 µM)	15.6 (≈ 54.9 µM)	7.8 (≈ 27.4 µM)	15.6 (≈ 54.9 µM)	15.6 (≈ 54.9 µM)
O=C(NNc1cc(Cl)cc(Cl)c1)c1ccc(F)cc1F [Compound 1j]	–	–	–	–	–	–	–	3.9 (≈ 12.3 µM)	> 31.3	> 31.3	7.8 (≈ 24.6 µM)	15.6 (≈ 49.2 µM)	> 31.3	> 31.3
O=C(NNc1cccc(F)c1)c1ccccn1 [Compound 2a]	≤0.06	0.98	0.49	0.98 μg/mL^−1	0.98	1.95	0.98	–	–	–	–	–	–	–
O=C(NNc1cccc(Cl)c1)c1ccccn1 [Compound 2b]	0.12	0.98	0.49	0.49 μg/mL^−1	0.98	0.98	0.98	–	–	–	–	–	–	–
COc1cccc(NNC(=O)c2ccccn2)c1 [Compound 2c]	0.24	0.98	1.95	0.98 μg/mL^−1	1.95	1.95	0.98	–	–	–	–	–	–	–
O=C(NNc1ccc(F)cc1)c1ccccn1 [Compound 2d]	–	–	–	–	–	–	–	0.12 (≈ 0.519 µM)	0.98 (≈ 4.24 µM)	0.98 (≈ 4.24 µM)	0.49 (≈ 2.12 µM)	1.95 (≈ 8.43 µM)	1.95 (≈ 8.43 µM)	3.9 (≈ 16.9 µM)
O=C(NNc1ccc(Cl)cc1)c1ccccn1 [Compound 2e]	0.12	0.98	0.24	0.98 μg/mL^−1	0.98	0.98	1.95	–	–	–	–	–	–	–
